Test results published in patent US11504385B2, “Proteolysis targeting chimeric molecule, preparation method, and application” (CHINA PHARMACEUTICAL UNIVERSITY, priority 2019, dated 2022).

Legend:
BCR-ABL fusion protein = target: T1, BCR-ABL fusion protein (Homo sapiens, UniProt P00519+P11274+Q96SW2, E27K); experiment: Immunoblotting, degradation of BCR-ABL protein in K562 cells; type: cell-based; settings: for inhibition of expression of BCR-ABL and/or CRBN protein: BCR-ABL and/or CRBN positive leukemia K562 cells, to varying degrees
T1 construct: By using BCR-ABL and CRBN positive K562 cell lines; endogenous in cells; host or cells: K562
Protocol: (§1) Initially, researchers synthesized a 2C compound (FIG. 2A), which is a small molecule with the shortest joining chain (n=1). By using BCR-ABL and CRBN positive K562 cell lines, degradation of ABL and BCR-ABL proteins in the cells under the action of the compound was tested by immunoblotting. […] Then, the researchers tried to extend the joining chain (increasing the value of n).
(§2) In order to test the degradation effect of the compound 4C on c-ABL and BCR-ABL proteins in K562 cells, the researchers performed an immunoblotting experiment. […] In order to exclude the possibility that the compound 4C affected the ABL gene to generate false positive expression, the researchers used RT-qPCR in K562 cells to study the expression of the ABL gene.
The operation method of the immunoblotting experiment is as follows: […]
(§3) The medium was aspirated from the culture; the cells were washed with 1*PBS; and the cells were aspirated.
(§4) A weak RIPA lysate (100 μL) was added to lyse the cells for 40 min.
(§5) The sample was centrifuged at 13000 rpm, 4° C. for 15 min; 80 μl of supernatant was taken and added to 20 μl of loading buffer; the reaction solution was heated at 100° C. for 8 minutes; and the sample was placed on ice and cooled.
(§6) […] of sample was loaded on 10% SDS-PAGE gel. The sample was transferred to a PVDF membrane by a wet process.
(§7) A membrane was placed in 25 ml of blocking buffer and blocked at room temperature for 1 hour.
(§8) The membrane and the primary antibody (according to the appropriate dilution and diluent recommended in the product description) were placed in 10 ml of primary antibody dilution buffer, and incubated overnight at 4° C. and gently shaken from time to time.
(§9) Anti-rabbit IgG, HRP-linked Antibody (#7074, in a ratio of 1:2000) and anti-biotin, HRP-linked Antibody (#7075, in a ratio of 1:1000-1:3000) are diluted with 10 ml of blocking buffer to detect biotinylated protein standards. The membrane was incubated with the diluent, and gently shaken and incubated at room temperature for 1 hour.
(§10) A developer solution and the membrane were incubated together for 1 minute, the excess solution was discarded (the membrane remained moist) and the membrane was exposed.
(§11) Next, we tested the difference in the activity of different configurations of compound 4C in degradation of ABL and BCR-ABL proteins. […] The operation method of the immunoblotting experiment is the same as above.

ABL = target: T2, ABL (Homo sapiens, UniProt P00519); experiment: Immunoblotting, degradation of ABL protein in K562 cells; type: cell-based; settings: 100 nM, 36 hours after administration
T2 construct: degradation effect of the compound 4C on c-ABL and BCR-ABL proteins in K562 cells; endogenous in cells; host or cells: K562
T2 sequence (P00519 whole entry): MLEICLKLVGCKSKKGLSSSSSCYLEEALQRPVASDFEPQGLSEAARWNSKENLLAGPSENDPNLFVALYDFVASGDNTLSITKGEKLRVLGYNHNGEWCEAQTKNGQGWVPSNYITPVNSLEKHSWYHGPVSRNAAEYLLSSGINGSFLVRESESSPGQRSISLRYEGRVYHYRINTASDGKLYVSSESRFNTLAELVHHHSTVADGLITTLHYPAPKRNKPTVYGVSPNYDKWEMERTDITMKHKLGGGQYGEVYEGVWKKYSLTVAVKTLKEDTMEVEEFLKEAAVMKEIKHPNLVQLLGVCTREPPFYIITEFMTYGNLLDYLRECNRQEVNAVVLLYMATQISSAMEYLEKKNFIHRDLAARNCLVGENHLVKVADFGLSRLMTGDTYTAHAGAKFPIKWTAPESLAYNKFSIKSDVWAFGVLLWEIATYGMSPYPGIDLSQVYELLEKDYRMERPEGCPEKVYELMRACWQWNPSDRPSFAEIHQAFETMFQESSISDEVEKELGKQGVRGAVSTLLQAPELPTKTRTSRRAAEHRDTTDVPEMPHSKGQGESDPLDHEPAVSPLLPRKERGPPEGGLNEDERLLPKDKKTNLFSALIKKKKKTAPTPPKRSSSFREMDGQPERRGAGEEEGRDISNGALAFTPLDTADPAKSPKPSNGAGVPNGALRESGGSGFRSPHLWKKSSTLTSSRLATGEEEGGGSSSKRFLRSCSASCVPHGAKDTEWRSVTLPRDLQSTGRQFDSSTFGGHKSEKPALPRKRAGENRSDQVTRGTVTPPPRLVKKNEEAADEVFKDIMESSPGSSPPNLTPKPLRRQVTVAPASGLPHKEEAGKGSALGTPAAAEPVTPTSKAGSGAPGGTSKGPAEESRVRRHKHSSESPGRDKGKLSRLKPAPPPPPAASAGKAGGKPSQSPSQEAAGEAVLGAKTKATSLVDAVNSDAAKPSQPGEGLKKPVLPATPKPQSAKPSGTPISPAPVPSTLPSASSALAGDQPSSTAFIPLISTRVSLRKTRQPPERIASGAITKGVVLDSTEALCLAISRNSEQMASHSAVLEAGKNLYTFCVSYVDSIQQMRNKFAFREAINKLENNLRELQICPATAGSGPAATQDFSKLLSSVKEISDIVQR
Protocol: as §1, §2
The operation method of the immunoblotting experiment is as follows:
K562 cells after administration were incubated for 24 hours.
as §3, §4, §5, §6, §7, §8, §9, §10, §11

| Structure (SMILES) | inhibition of expression of BCR-ABL and/or CRBN protein (BCR-ABL fusion protein) | level of BCR-ABL fusion protein (WB) (BCR-ABL fusion protein; K562 cells, 100 nM, 36 hours after administration) | level of the BCR-ABL protein (WB) (BCR-ABL fusion protein; K562 cells, 36 hours after administration, dose-effect) | level of the ABL protein (WB) (ABL) |
| --- | --- | --- | --- | --- |
| Cc1nc(Nc2ncc(C(=O)Nc3c(C)cccc3Cl)s2)cc(N2CCN(CCOc3ccc(/N=N/c4ccc(C(=O)Nc5cccc6c5CN(C5CCC(=O)NC5=O)C6=O)cc4)cc3)CC2)n1 (stereo not shown) [Compound 2C, (E)-N-(2-chloro-6-methylphenyl)-2-((6-(4-(2-(4-((4-((2-(2,6-dioxopiperidin-3-yl)-1-oxoisoindolin-4-yl)carbamoyl)phenyl)diazenyl)phenoxy)ethyl)piperazin-1-yl)-2-methylpyrimidin-4-yl)amino)thiazole-5-carboxamide] | can inhibit the expression | significantly reduced | down-regulate the level of the BCR-ABL protein in a dose-dependent manner | significantly reduced |
| Cc1nc(Nc2ncc(C(=O)Nc3c(C)cccc3Cl)s2)cc(N2CCN(CCCOc3ccc(/N=N/c4ccc(C(=O)Nc5cccc6c5CN(C5CCC(=O)NC5=O)C6=O)cc4)cc3)CC2)n1 (stereo not shown) [Compound 3C, (E)-N-(2-chloro-6-methylphenyl)-2-((6-(4-(3-(4-((4-((2-(2,6-dioxopiperidin-3-yl)-1-oxoisoindolin-4-yl)carbamoyl)phenyl)diazenyl)phenoxy)propyl)piperazin-1-yl)-2-methylpyrimidin-4-yl)amino)thiazole-5-carboxamide] | can inhibit the expression | – | – | – |
| Cc1nc(Nc2ncc(C(=O)Nc3c(C)cccc3Cl)s2)cc(N2CCN(CCCCCOc3ccc(/N=N/c4ccc(C(=O)Nc5cccc6c5CN(C5CCC(=O)NC5=O)C6=O)cc4)cc3)CC2)n1 (stereo not shown) [Compound 5C, (E)-N-(2-chloro-6-methylphenyl)-2-((6-(4-(5-(4-((4-((2-(2,6-dioxopiperidin-3-yl)-1-oxoisoindolin-4-yl)carbamoyl)phenyl)diazenyl)phenoxy)pentyl)piperazin-1-yl)-2-methylpyrimidin-4-yl)amino)thiazole-5-carboxamide] | can inhibit the expression | – | – | – |
| Cc1nc(Nc2ncc(C(=O)Nc3c(C)cccc3Cl)s2)cc(N2CCN(CCCCCCOc3ccc(/N=N/c4ccc(C(=O)Nc5cccc6c5CN(C5CCC(=O)NC5=O)C6=O)cc4)cc3)CC2)n1 (stereo not shown) [Compound 6C, (E)-N-(2-chloro-6-methylphenyl)-2-((6-(4-(6-(4-((4-((2-(2,6-dioxopiperidin-3-yl)-1-oxoisoindolin-4-yl)carbamoyl)phenyl)diazenyl)phenoxy)hexyl)piperazin-1-yl)-2-methylpyrimidin-4-yl)amino)thiazole-5-carboxamide] | can inhibit the expression | – | – | – |
